The target in one experiment is T1, SMARCA2 (Homo sapiens, UniProt P51531).
T1 construct: SMARCA2-HiBiT knock-in Hela monoclonal cell (CS302366); host or cells: HeLa monoclonal cells with heterozygous HiBiT knock-in at the endogenous SMARCA2 locus
In words: SMARCA2 HiBiT degradation assay in HeLa cells. Type of experiment: cell-based. As to conditions: 18 hours, highest concentration 10 μM. In a few lines:
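HeLa cells carrying a heterozygous C-terminal HiBiT knock-in on SMARCA2 were seeded at 2500 cells/well. They were treated with 3-fold dilution series, top concentration 10 μM, for 18 h at 37 °C. Remaining SMARCA2-HiBiT was measured by Nano-Glo HiBiT lytic luminescence after 30-60 min at RT, followed by curve fitting.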
A general note: HiBiT is a short tag that completes a luciferase, so light tracks the accessible tagged protein.

The next experiment deals with T2, SMARCA4 (Homo sapiens, UniProt P51532).
T2 construct: SMARCA4-HiBiT knock-in Hela monoclonal cell (CS3023226); host or cells: HeLa monoclonal cells with heterozygous HiBiT knock-in at the endogenous SMARCA4 locus
T2 sequence (P51532 whole entry): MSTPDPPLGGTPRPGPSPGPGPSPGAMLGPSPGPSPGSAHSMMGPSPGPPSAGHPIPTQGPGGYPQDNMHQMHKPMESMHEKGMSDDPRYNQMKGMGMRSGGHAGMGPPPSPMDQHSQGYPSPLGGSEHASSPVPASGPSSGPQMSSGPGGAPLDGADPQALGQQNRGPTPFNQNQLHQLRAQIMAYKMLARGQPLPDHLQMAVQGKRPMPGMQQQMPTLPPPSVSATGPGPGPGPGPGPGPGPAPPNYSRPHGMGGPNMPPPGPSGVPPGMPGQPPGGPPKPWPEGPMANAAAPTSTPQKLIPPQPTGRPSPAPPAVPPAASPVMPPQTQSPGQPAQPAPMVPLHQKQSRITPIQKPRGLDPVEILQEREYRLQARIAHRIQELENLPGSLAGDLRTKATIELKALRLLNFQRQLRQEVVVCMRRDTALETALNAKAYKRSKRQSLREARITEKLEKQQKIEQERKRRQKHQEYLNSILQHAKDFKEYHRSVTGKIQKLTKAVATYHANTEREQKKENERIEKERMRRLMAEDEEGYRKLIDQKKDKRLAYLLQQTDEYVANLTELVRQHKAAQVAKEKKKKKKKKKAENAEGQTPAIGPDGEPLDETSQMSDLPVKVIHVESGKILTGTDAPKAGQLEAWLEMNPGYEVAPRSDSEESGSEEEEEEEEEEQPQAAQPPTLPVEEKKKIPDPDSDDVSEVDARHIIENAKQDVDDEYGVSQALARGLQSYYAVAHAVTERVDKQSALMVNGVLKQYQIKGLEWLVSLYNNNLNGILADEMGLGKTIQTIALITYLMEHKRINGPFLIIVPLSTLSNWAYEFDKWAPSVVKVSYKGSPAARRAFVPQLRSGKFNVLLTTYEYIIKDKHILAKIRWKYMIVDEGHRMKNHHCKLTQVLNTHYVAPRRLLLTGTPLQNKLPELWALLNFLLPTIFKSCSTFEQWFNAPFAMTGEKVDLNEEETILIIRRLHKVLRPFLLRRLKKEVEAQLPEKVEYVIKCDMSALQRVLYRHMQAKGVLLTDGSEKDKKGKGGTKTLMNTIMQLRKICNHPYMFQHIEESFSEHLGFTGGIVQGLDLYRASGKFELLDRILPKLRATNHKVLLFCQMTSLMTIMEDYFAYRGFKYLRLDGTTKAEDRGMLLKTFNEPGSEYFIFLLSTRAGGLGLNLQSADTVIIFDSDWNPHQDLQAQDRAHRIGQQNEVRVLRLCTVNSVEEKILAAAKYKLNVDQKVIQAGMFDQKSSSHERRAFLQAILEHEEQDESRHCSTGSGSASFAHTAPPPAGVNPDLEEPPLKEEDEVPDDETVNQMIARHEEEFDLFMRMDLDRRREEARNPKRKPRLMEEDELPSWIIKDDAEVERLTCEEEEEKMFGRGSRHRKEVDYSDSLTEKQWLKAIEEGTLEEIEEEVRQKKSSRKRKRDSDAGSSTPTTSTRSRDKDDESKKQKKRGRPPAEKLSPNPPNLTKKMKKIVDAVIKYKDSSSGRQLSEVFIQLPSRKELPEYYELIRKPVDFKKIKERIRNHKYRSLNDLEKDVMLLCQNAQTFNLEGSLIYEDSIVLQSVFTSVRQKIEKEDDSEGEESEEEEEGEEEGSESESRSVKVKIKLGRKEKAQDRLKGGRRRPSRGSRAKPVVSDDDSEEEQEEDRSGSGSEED
The experiment in a line: SMARCA4 HiBiT degradation assay in HeLa cells. The class given is cell-based. The following applies: 18 hours, highest concentration 10 μM. In a few lines: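 HeLa monoclonal cells with HiBiT knocked into SMARCA4 were seeded at 2500 cells/well, dosed with compound and incubated 18 hours at 37° C. HiBiT signal reported remaining SMARCA4 protein, and values came from curve fitting.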

A value given as a limit tells only on which side of the number the result lay.

T1 sequence (P51531 whole entry): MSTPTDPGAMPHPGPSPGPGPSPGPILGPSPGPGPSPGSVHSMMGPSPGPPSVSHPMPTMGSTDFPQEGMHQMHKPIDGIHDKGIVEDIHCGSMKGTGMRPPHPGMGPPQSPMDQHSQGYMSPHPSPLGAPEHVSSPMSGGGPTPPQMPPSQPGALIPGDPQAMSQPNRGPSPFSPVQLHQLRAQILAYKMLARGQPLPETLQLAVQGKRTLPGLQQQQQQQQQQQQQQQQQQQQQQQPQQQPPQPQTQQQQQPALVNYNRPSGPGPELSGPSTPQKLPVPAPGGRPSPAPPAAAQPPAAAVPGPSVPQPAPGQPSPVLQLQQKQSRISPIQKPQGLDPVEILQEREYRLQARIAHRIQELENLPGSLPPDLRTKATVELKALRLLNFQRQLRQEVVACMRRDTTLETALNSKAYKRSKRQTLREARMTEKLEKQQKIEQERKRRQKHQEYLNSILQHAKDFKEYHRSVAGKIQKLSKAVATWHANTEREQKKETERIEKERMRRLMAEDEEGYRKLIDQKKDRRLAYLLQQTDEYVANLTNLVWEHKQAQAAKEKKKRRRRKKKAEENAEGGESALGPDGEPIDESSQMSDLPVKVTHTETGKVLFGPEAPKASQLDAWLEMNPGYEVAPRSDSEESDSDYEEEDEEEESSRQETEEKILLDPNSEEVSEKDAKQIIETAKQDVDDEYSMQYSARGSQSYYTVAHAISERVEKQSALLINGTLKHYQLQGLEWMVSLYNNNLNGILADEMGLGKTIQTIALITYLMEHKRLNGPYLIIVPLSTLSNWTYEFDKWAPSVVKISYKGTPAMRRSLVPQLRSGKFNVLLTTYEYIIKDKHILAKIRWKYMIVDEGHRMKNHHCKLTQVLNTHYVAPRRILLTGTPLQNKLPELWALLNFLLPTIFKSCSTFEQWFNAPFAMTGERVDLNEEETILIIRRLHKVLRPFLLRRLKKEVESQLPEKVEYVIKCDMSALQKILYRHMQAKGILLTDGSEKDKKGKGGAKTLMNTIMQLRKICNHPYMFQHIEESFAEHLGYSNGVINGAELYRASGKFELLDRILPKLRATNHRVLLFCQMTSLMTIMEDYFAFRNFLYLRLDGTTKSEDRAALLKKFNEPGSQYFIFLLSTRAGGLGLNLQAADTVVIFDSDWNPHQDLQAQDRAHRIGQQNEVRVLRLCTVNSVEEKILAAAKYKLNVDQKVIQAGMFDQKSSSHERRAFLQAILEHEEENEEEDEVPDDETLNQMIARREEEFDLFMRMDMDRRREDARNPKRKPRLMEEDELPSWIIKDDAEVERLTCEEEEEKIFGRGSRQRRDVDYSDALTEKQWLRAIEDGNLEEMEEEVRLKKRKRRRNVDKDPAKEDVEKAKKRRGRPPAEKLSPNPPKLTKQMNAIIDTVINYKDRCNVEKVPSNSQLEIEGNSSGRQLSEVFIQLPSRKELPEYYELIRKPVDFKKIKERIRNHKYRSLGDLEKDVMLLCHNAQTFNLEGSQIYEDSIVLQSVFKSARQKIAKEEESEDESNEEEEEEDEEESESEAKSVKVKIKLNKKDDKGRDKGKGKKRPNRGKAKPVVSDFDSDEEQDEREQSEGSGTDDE

Take `Cc1nc(O[C@H]2CN3c4cc(-c5cccc(F)c5O)nnc4NC[C@]3(C(F)F)C2)c(C)nc1CN1CCN(c2ccc3c(c2)C(=O)N([C@H]2CCC(=O)NC2=O)C3)CC1` [Example 48, (S)-3-(6-(4-((5-(((6aS,8R)-6a-(difluoromethyl)-2-(3-fluoro-2-hydroxyphenyl)-5,6,6a,7,8,9-hexahydropyrrolo[1′,2′:4,5]pyrazino[2,3-c]pyridazin-8-yl)oxy)-3,6-dimethylpyrazin-2-yl)methyl)piperazin-1-yl)-1-oxoisoindolin-2-yl)piperidine-2,6-dione]: the DC50 on SMARCA2 is less than 0.1 µM; on SMARCA4 it was 0.1 to 1 µM. Further, the greatest degradation seen (Dmax) was 50 to 75% on SMARCA2 and less than 50% at SMARCA4.
On to `O=C1CC[C@H](N2Cc3ccc(N4CCN(Cc5ccc(O[C@H]6CN7c8cc(-c9cccc(F)c9O)nnc8NC[C@]7(C(F)F)C6)cn5)CC4)cc3C2=O)C(=O)N1` [Example 49, (S)-3-(6-(4-((5-(((6aS,8R)-6a-(difluoromethyl)-2-(3-fluoro-2-hydroxyphenyl)-5,6,6a,7,8,9-hexahydropyrrolo [1′,2′:4,5]pyrazino[2,3-c]pyridazin-8-yl)oxy)pyridin-2-yl)methyl)piperazin-1-yl)-1-oxoisoindolin-2-yl)piperidine-2,6-dione], for which, on SMARCA2, the 50% degradation concentration (DC50) was less than 0.1 µM and the Dmax was greater than 75%. At SMARCA4, this compound had a DC50 of 0.1 to 1 µM and a maximal degradation (Dmax) of less than 50%.
In the same order, the values of `CC(C)c1nc(O[C@H]2CN3c4cc(-c5cccc(F)c5O)nnc4NC[C@]3(C(F)F)C2)ncc1CN1CCN(c2ccc3c(c2)C(=O)N(C2CCC(=O)NC2=O)C3)CC1` (stereo partly drawn) [Example 50, 3-(6-(4-((2-(((6aS,8R)-6a-(difluoromethyl)-2-(3-fluoro-2-hydroxyphenyl)-5,6,6a,7,8,9-hexahydropyrrolo [1′,2′:4,5]pyrazino[2,3-c]pyridazin-8-yl)oxy)-4-isopropylpyrimidin-5-yl)methyl)piperazin-1-yl)-1-oxoisoindolin-2-yl)piperidine-2,6-dione] are less than 0.1 µM, greater than 75%, less than 0.1 µM and 50 to 75%.
In the same order, the values of `Cc1nc(O[C@H]2CN3c4cc(-c5cccc(F)c5O)nnc4NC[C@]3(C(F)F)C2)cnc1CN1CCN(c2ccc3c(c2)C(=O)N(C2CCC(=O)NC2=O)C3)CC1` (stereo partly drawn) [Example 51, 3-(6-(4-((5-(((6aS,8R)-6a-(difluoromethyl)-2-(3-fluoro-2-hydroxyphenyl)-5,6,6a,7,8,9-hexahydropyrrolo[1′,2′:4,5]pyrazino[2,3-c]pyridazin-8-yl)oxy)-3-methylpyrazin-2-yl)methyl)piperazin-1-yl)-1-oxoisoindolin-2-yl)piperidine-2,6-dione] are less than 0.1 µM, greater than 75%, greater than 1 µM and less than 50%.
The corresponding values for `O=C1CCC(N2Cc3ccc(N4CCN(Cc5cnc(O[C@H]6CN7c8cc(-c9cccc(F)c9O)nnc8NC[C@]7(C(F)F)C6)cn5)CC4)cc3C2=O)C(=O)N1` (stereo partly drawn) [Example 52, 3-(6-(4-((5-(((6aS,8R)-6a-(difluoromethyl)-2-(3-fluoro-2-hydroxyphenyl)-5,6,6a,7,8,9-hexahydropyrrolo[1′,2′:4,5]pyrazino[2,3-c]pyridazin-8-yl)oxy)pyrazin-2-yl)methyl)piperazin-1-yl)1-oxoisoindolin-2-yl)piperidine-2,6-dione] are less than 0.1 µM, greater than 75%, greater than 1 µM and less than 50%.
For `COc1cc(CN2CCN(c3ccc4c(c3)C(=O)N(C3CCC(=O)NC3=O)C4)CC2)cnc1O[C@H]1CN2c3cc(-c4cccc(F)c4O)nnc3NC[C@]2(C(F)F)C1` (stereo partly drawn) [Example 53, 3-(6-(4-((6-(((6aS,8R)-6a-(difluoromethyl)-2-(3-fluoro-2-hydroxyphenyl)-5,6,6a,7,8,9-hexahydropyrrolo[1′,2′:4,5]pyrazino[2,3-c]pyridazin-8-yl)oxy)-5-methoxypyridin-3-yl)methyl)piperazin-1-yl)-1-oxoisoindolin-2-yl)piperidine-2,6-dione], on SMARCA2, the DC50 is less than 0.1 µM and the Dmax is greater than 75%. At SMARCA4, this compound had a 50% degradation concentration (DC50) of less than 0.1 µM and a Dmax greater than 75%.
Regarding `O=C1CCC(N2Cc3ccc(N4CCN(Cc5cnc(O[C@H]6CN7c8cc(-c9cccc(F)c9O)nnc8NC[C@]7(C(F)F)C6)c(F)c5)CC4)cc3C2=O)C(=O)N1` (stereo partly drawn) [Example 54, 3-(6-(4-((6-(((6aS,8R)-6a-(difluoromethyl)-2-(3-fluoro-2-hydroxyphenyl)-5,6,6a,7,8,9-hexahydropyrrolo[1′,2′:4,5]pyrazino[2,3-c]pyridazin-8-yl)oxy)-5-fluoropyridin-3-yl)methyl)piperazin-1-yl)-1-oxoisoindolin-2-yl)piperidine-2,6-dione], at SMARCA2, the DC50 is less than 0.1 µM and the Dmax was greater than 75%. On SMARCA4, this compound returned a 50% degradation concentration (DC50) of less than 0.1 µM and a Dmax of 50 to 75%.
Take `Cc1cc(O[C@H]2CN3c4cc(-c5cccc(F)c5O)nnc4NC[C@@]3(C)C2)ncc1CN1CCN(c2ccc3c(c2)C(=O)N(C2CCC(=O)NC2=O)C3)CC1` (stereo partly drawn) [Example 55, 3-(6-(4-((6-(((6aR,8R)-2-(3-fluoro-2-hydroxyphenyl)-6a-methyl-5,6,6a,7,8,9-hexahydropyrrolo[1′,2′:4,5]pyrazino[2,3-c]pyridazin-8-yl)oxy)-4-methylpyridin-3-yl)methyl)piperazin-1-yl)-1-oxoisoindolin-2-yl)piperidine-2,6-dione]: on SMARCA2, the DC50 is less than 0.1 µM and the Dmax was greater than 75%. At SMARCA4, this compound had a 50% degradation concentration (DC50) of less than 0.1 µM and a Dmax of 50 to 75%.
At SMARCA2, `CC[C@@]12CNc3nnc(-c4cccc(F)c4O)cc3N1C[C@H](Oc1cc(C)c(CN3CCN(c4ccc5c(c4)C(=O)N([C@H]4CCC(=O)NC4=O)C5)CC3)cn1)C2` [Example 56, 3-(6-(4-((6-(((6aR,8R)-6a-Ethyl-2-(3-fluoro-2-hydroxyphenyl)-5,6,6a,7,8,9-hexahydropyrrolo[1′,2′:4,5]pyrazino[2,3-c]pyridazin-8-yl)oxy)-4-methylpyridin-3-yl)methyl)piperazin-1-yl)-1-oxoisoindolin-2-yl)piperidine-2,6-dione] returned a DC50 of less than 0.1 µM and a Dmax greater than 75%. Further, on SMARCA4, the DC50 is less than 0.1 µM and the Dmax lay within 50 to 75%.
As for `CC[C@@]12CNc3nnc(-c4cccc(F)c4O)cc3N1C[C@H](Oc1cnc(CN3CCN(c4ccc5c(c4)C(=O)N([C@H]4CCC(=O)NC4=O)C5)CC3)c(C)n1)C2` [Example 57, (S)-3-(6-(4-((5-(((6aR,8R)-6a-ethyl-2-(3-fluoro-2-hydroxyphenyl)-5,6,6a,7,8,9-hexahydropyrrolo[1′,2′:4,5]pyrazino[2,3-c]pyridazin-8-yl)oxy)-3-methylpyrazin-2-yl)methyl)piperazin-1-yl)-1-oxoisoindolin-2-yl)piperidine-2,6-dione], the DC50 on SMARCA2 was less than 0.1 µM; on SMARCA4 it was 0.1 to 1 µM. Also, the Dmax at SMARCA2 was greater than 75%; on SMARCA4 it was less than 50%.

Usually DC50 stands for the midpoint of the concentration-degradation curve. A high value points to degradation only at high concentration. A word on the Dmax: it is the greatest extent of degradation seen. A high value points to a fuller loss of target.

(Values after patent US20240165244A1 (Prelude Therapeutics Incorporated, priority 2022, published 2024).)
